This passage reports activation and EC50 results from patent publication US8293729B2 (Boehringer Ingelheim International GmbH, priority 2009, dated 2012).

pEC50: −log10 of the molar value.

One assay has as its target T1, human GPR119 receptor (Homo sapiens, UniProt Q8TDV5, S329A/T327A).
T1 construct: N-terminal leader […]; expressed in transfected cells
T1 sequence (Q8TDV5 with tags, fused parts or gaps T327A/S329A): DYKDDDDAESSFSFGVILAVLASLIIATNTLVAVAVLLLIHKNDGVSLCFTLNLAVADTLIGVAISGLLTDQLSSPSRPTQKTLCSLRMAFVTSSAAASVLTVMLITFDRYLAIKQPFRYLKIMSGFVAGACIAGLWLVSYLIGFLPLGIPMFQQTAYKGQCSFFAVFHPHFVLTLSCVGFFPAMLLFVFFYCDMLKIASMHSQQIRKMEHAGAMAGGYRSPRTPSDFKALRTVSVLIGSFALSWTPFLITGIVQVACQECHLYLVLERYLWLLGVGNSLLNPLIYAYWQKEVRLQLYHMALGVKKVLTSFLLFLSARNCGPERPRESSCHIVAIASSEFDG
As to the kind of experiment: cAMP assay (LANCE cAMP-384) in HEK293 cells stably expressing mutant human GPR119 receptor. The assay is classed as cell-based. The conditions noted are these: HEK293, 20 min; at 10 μM; printed in EC50 column of the 36th table; read-out: stimulation in % at 10 μM. The essentials:
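Agonist EC50 came from nonlinear regression over 12 concentrations (30 μM–100 pM), with % stimulation at 10 μM where no EC50 was obtained. Cells: stable HEK293 with mutant human GPR119 (T327A/S329A), 20 min compound at 37° C; cAMP read by LANCE kit with standard curve.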
Background: Cyclic AMP is a second messenger, typically raised through Gs and lowered through Gi signalling.
On to `CS(=O)(=O)c1ccc(N2CCC(=NOC3CCN(Cc4cccnc4Cl)CC3)CC2)c(F)c1` [Example 66-51], for which the activation at 10 µM is 66%.
Take `Cc1cc(CN2CCC(ON=C3CCN(c4ccc(S(C)(=O)=O)cc4F)CC3)CC2)oc1C` [Example 66-34]: the activation at 10 µM was determined as 75%.

The assay is the same for the next values; noted with them: cAMP accumulation, HEK293 cells stably expressing mutant human GPR119; read-out: EC50.
With `Cc1cc(C(=O)O)nc(N2CCC(=NOC3CCN(C(=O)OC(C)C)CC3)CC2)n1` [Example 2-65], the pEC50 was less than 5.00.
Same read-out and setting: the same measure for `CC(C)OC(=O)N1CCC(ON=C2CCN(c3cc(F)c(-c4cn[nH]c4)cc3F)CC2)CC1` [Example 27-10]: 6.75; for `CC(C)OC(=O)N1CCC(ON=C2CCN(c3cc(F)c(-c4ccsc4)cc3F)CC2)CC1` [Example 27-12]: 6.61.
Same read-out and setting: the same measure for `CC(C)OC(=O)N1CCC(ON=C2CCN(c3cc(F)c(C(=O)NCCCN)cc3F)CC2)CC1` [Example 31-3]: 6.27.
Still for that read-out and setting: the same measure for `CC(C)OC(=O)N1CCC(ON=C2CCN(c3cc(F)c(-c4ncccn4)cc3F)CC2)CC1` [Example 27-20]: 6.57; for `CC(C)OC(=O)N1CCC(ON=C2CCN(c3cc(F)c(CSCC(=O)O)cc3F)CC2)CC1` [Example 13-2]: 5.62.
As for `Cc1ccc(-c2cc(F)c(N3CCC(=NOC4CCN(C(=O)OC(C)C)CC4)CC3)cc2F)cn1` [Example 27-30], the pEC50 was 6.36.
Consider `CC(C)OC(=O)N1CCC(ON=C2CCN(c3ccncc3F)CC2)CC1` [Example 2-72], for which the pEC50 was 6.12.
Turning to `CC(C)OC(=O)N1CCC(ON=C2CCN(c3cc(F)c(S(=O)(=O)C4CC4)cc3F)CC2)CC1` [Example 47-1, 4-[1-(4-Cyclopropanesulfonyl-2,5-difluoro-phenyl)-piperidin-4-ylideneaminooxy]-piperidine-1-carboxylic acid isopropyl ester], the pEC50 is 7.37.
As to `CCOC(=O)NCc1cc(F)c(N2CCC(=NOC3CCN(C(=O)OC(C)C)CC3)CC2)cc1F` [Example 16-4], the pEC50 was 7.15.
Still for that read-out and setting: the same measure for `CC(C)OC(=O)N1CCC(ON=C2CCN(c3cc(F)c(Cn4cnnc4)cc3F)CC2)CC1` [Example 14-17]: 7.55; for `Cc1c(Cl)ncnc1N1CCC(=NOC2CCN(C(=O)OC(C)C)CC2)CC1` [Example 2-52]: 6.19.
Regarding `CC(C)OC(=O)N1CCC(ON=C2CCN(c3cnccn3)CC2)CC1` [Example 2-11], the pEC50 was less than 5.00.
On the same count and under the same terms, the same measure for `CC(C)OC(=O)N1CCC(ON=C2CCN(c3cc(F)c(CN(C)C)cc3F)CC2)CC1` [Example 5-8]: less than 5.00; for `CC(C)OC(=O)N1CCC(ON=C2CCN(c3cc(F)c(Br)cc3F)CC2)CC1` [Example 2-40]: 5.70.
As for `CC(C)OC(=O)N1CCC(ON=C2CCN(c3cc(F)c(Cn4cnc5ncccc54)cc3F)CC2)CC1` [Example 14-5], the pEC50 is 6.43.
Regarding `CC(C)OC(=O)N1CCC(ON=C2CCN(c3cc(F)c(C=O)cc3F)CC2)CC1` [Example 2-3], the pEC50 was 7.85.
On the same count and under the same terms, the same measure for `CCOC(=O)CNC(=O)NCc1cc(F)c(N2CCC(=NOC3CCN(C(=O)OC(C)C)CC3)CC2)cc1F` [Example 16-9]: 6.40.

The same assay, now with this note: the 15th table; read-out: EC50.
Consider `CC(C)OC(=O)N1CCC(ON=C2CCN(c3cc(F)c(C(=O)NCCN)cc3F)CC2)CC1` [Example 29-6], for which the pEC50 was 6.42.
Still for that read-out and setting: the same measure for `CNCCN(C)C(=O)c1cc(F)c(N2CCC(=NOC3CCN(C(=O)OC(C)C)CC3)CC2)cc1F` [Example 29-5]: 6.67.
Same read-out and setting: the same measure for `CC(C)OC(=O)N1CCC(ON=C2CCN(c3cc(F)c(C(=O)NCCCN)cc3F)CC2)CC1` [Example 29-7]: 7.38; for `CC(CO)NC(=O)c1cc(F)c(N2CCC(=NOC3CCN(C(=O)OC(C)C)CC3)CC2)cc1F` (centres unmarked) [Example 29-8]: 7.09.
Still for that read-out and setting: the same measure for `CC(C)OC(=O)N1CCC(ON=C2CCN(c3cc(F)c(C(=O)N4CCCCC4CN)cc3F)CC2)CC1` (centres unmarked) [Example 29-57]: 6.73; for `CC(C)OC(=O)N1CCC(ON=C2CCN(c3cc(F)c(C(=O)N4CCC[C@@H]4CN)cc3F)CC2)CC1` [Example 29-50]: 6.88.

Staying with this assay, now noted: the 19th table; unit inferred; read-out: EC 50.
Consider `CCc1cnc(N2CCC(ON=C3CCN(c4cc(F)c(C(=O)NC5CNC5)cc4F)CC3)CC2)nc1` [Example 29-116], for which the pEC50 is 6.49.
`CCc1cnc(N2CCC(ON=C3CCN(c4cc(F)c(C(=O)N5CCC[C@H](N)C5)cc4F)CC3)CC2)nc1` [Example 29-89]: the pEC50 was 7.13.
Still for that read-out and setting: the same measure for `CCc1cnc(N2CCC(ON=C3CCN(c4cc(F)c(C(=O)N5CCCC(CNC)C5)cc4F)CC3)CC2)nc1` (centres unmarked) [Example 29-129]: 7.30.
Same read-out and setting: the same measure for `CCc1cnc(N2CCC(ON=C3CCN(c4cc(F)c(C(=O)N5CC[C@@H](N)C5)cc4F)CC3)CC2)nc1` [Example 29-118]: 6.70.

Staying with this assay, now noted: the 28th table; read-out: EC50.
For `CC(C)OC(=O)N1CCC(ON=C2CCN(c3ncc(-n4cncn4)cn3)CC2)CC1` [Example 51-4], the pEC50 is 6.13.
Same read-out and setting: the same measure for `CC(C)OC(=O)N1CCC(ON=C2CCN(c3ncc(N4CCCC4=O)cc3F)CC2)CC1` [Example 51-3]: 6.40.

The assay is the same for the next values; noted with them: the 30th table; read-out: EC50.
As to `CC(C)OC(=O)N1CCC(ON=C2CCN(c3ncc(Cn4ccnn4)cc3F)CC2)CC1` [Example 54-2], the pEC50 is 5.98.

The assay is the same for the next values; noted with them: the 31st table; read-out: EC50.
`CC(C)OC(=O)N1CCC(ON=C2CCCN(c3ccc(S(C)(=O)=O)cc3F)C2)CC1` (mixture of isomers) [Example 61-1, 4-[1-(2-Fluoro-4-methanesulfonyl-phenyl)-piperidin-(3Z)-ylideneaminooxy]-piperidine-1-carboxylic acid isopropyl ester]: the pEC50 was less than 5.00.

Still in this assay, the particulars now being: the 32nd table; read-out: EC50.
For the molecule `Cc1cccnc1N1CCC(ON=C2CCN(c3ccc(S(C)(=O)=O)cc3F)CC2)CC1` [Example 63-3], the pEC50 is less than 5.00.
Same read-out and setting: the same measure for `Cc1ccnc(N2CCC(ON=C3CCN(c4ccc(S(C)(=O)=O)cc4F)CC3)CC2)n1` [Example 63-16]: 6.12; for `CS(=O)(=O)c1ccc(N2CCC(=NOC3CCN(c4ccccn4)CC3)CC2)c(F)c1` [Example 63-1, 1-(2-Fluoro-4-methanesulfonyl-phenyl)-piperidin-4-one O-(3,4,5,6-tetrahydro-2H-[1,2′]bipyridinyl-4-yl)-oxime]: 6.34.
Same read-out and setting: the same measure for `CS(=O)(=O)c1ccc(N2CCC(=NOC3CCN(c4nccs4)CC3)CC2)c(F)c1` [Example 63-7]: 6.35.

Still in this assay, the particulars now being: the 33rd table; read-out: EC50.
For `CS(=O)(=O)c1ccc(N2CCC(=NOC3CCN(C(=O)OCC4CNCCO4)CC3)CC2)c(F)c1` (centres unmarked) [Example 64-38], the pEC50 is less than 5.00.
Still for that read-out and setting: the same measure for `COC(=O)C(C)(C)COC(=O)N1CCC(ON=C2CCN(c3ccc(S(C)(=O)=O)cc3F)CC2)CC1` [Example 64-30]: 6.56; for `CN(C)CCCOC(=O)N1CCC(ON=C2CCN(c3ccc(S(C)(=O)=O)cc3F)CC2)CC1` [Example 64-15]: less than 5.00; for `CS(=O)(=O)c1ccc(N2CCC(=NOC3CCN(C(=O)OCC4CC4)CC3)CC2)c(F)c1` [Example 64-2]: 7.00.

The same assay, now with this note: the 34th table, compounds 65-1 to 65-24; read-out: EC50.
Consider `CCN(CC)C(=O)CN1CCC(ON=C2CCN(c3ccc(S(C)(=O)=O)cc3F)CC2)CC1` [Example 65-1, N,N-Diethyl-2-{4-[1-(2-fluoro-4-methanesulfonyl-phenyl)-piperidin-4-ylideneaminooxy]-piperidin-1-yl}-acetamide], for which the pEC50 was less than 5.00.
On to `CS(=O)(=O)c1ccc(N2CCC(=NOC3CCN(CC(=O)Oc4ccccc4)CC3)CC2)c(F)c1` [Example 65-6], for which the pEC50 is 6.07.

The assay is the same for the next values; noted with them: the 36th table, compounds 66-1 to 66-51; read-out: EC50.
For `Cc1cc(CN2CCC(ON=C3CCN(c4ccc(S(C)(=O)=O)cc4F)CC3)CC2)n(C)n1` [Example 66-13], the pEC50 was less than 5.00.
For the molecule `CC(C)c1ccc(CN2CCC(ON=C3CCN(c4ccc(S(C)(=O)=O)cc4F)CC3)CC2)cc1` [Example 66-32], the pEC50 is 6.48.
Still for that read-out and setting: the same measure for `CS(=O)(=O)c1ccc(N2CCC(=NOC3CCN(Cc4ccc(Br)cc4)CC3)CC2)c(F)c1` [Example 66-41]: 6.22; for `CC(C)CCN1CCC(ON=C2CCN(c3ccc(S(C)(=O)=O)cc3F)CC2)CC1` [Example 66-23]: less than 5.00.

The same assay, now with this note: the 37th table, compounds 66-52 to 66-64; read-out: EC50.
Regarding `CCc1ccc(CN2CCC(ON=C3CCN(c4cc(F)c(S(C)(=O)=O)cc4F)CC3)CC2)cc1` [Example 66-55], the pEC50 was 7.43.

Still in this assay, the particulars now being: the 38th table, compounds 66-65 to 66-72; read-out: EC50.
On to `CCc1ccc(CN2CCC(ON=C3CCN(c4cc(F)c(C(=O)NC)cc4F)CC3)CC2)cc1` [Example 66-71], for which the pEC50 was 7.10.
On the same count and under the same terms, the same measure for `CNC(=O)c1cc(F)c(N2CCC(=NOC3CCN(Cc4ccc(-c5cccnc5)cc4)CC3)CC2)cc1F` [Example 66-66]: 5.90.

The same assay, now with this note: the 43rd table, compounds 75-1 to 75-38; read-out: EC50.
As to `CC(C)OC(=O)N1CCC(ON=C2CCN(c3cc(F)c(CC(=O)NC4CCNC4)cc3F)CC2)CC1` (centres unmarked) [Example 75-17], the pEC50 was 6.82.
Same read-out and setting: the same measure for `CC(C)OC(=O)N1CCC(ON=C2CCN(c3cc(F)c(CC(=O)N4CCC(CN5CCCCC5)C4)cc3F)CC2)CC1` (centres unmarked) [Example 75-35]: 6.77.
